Activity calls are given as the source filed them. The rule behind the calls is not given here.
Legend:
IGROV1-R10 [1] = test: Pro-apoptotic activity in human IGROV1-R10 cells transfected with Bcl-xL siRNA assessed as increase in cleaved PARP expression at 25 uM measured after 24 hrs by Western blot analysis; assay type: functional, cell-based
IGROV1-R10 [2] = test: Pro-apoptotic activity in human IGROV1-R10 cells transfected with Bcl-xL siRNA assessed as increase in cleaved caspase-3 expression at 25 uM measured after 24 hrs by Western blot analysis; assay type: functional, cell-based
[3] = Pro-apoptotic activity in human IGROV1-R10 cells transfected with Bcl-xL siRNA assessed as accumulation at sub G1 phase at 25 uM incubated for 24 hrs by propidium iodide staining based flow cytometry analysis (reference value: 17% ); assay type: functional
[4] = Pro-apoptotic activity in human IGROV1-R10 cells transfected with Bcl-xL siRNA assessed as condensed nuclei at 25 uM measured after 24 hrs by DAPI staining based fluorescence microscopy analysis relative to control; assay type: functional
IGROV1-R10 [5] = test: Pro-apoptotic activity in human IGROV1-R10 cells transfected with Bcl-xL siRNA assessed as morphological alteration at 25 uM measured after 24 hrs by DAPI staining based fluorescence microscopy analysis; assay type: functional, cell-based
[6] = Pro-apoptotic activity in human IGROV1-R10 cells assessed as accumulation at sub G1 phase at 25 uM incubated for 24 hrs by propidium iodide staining based flow cytometry analysis (reference value: 2.8% ); assay type: functional
[7] = Pro-apoptotic activity in human IGROV1-R10 cells assessed as accumulation at sub G1 phase at 25 uM incubated for 24 hrs in presence of ABT-737 by propidium iodide staining based flow cytometry analysis (reference value: 21.2% ); assay type: functional
[8] = Pro-apoptotic activity in human IGROV1-R10 cells assessed as accumulation at sub G1 phase at 10 uM incubated for 24 hrs by propidium iodide staining based flow cytometry analysis (reference value: 2 % ); assay type: functional
[9] = Pro-apoptotic activity in human IGROV1-R10 cells assessed as accumulation at sub G1 phase at 15 uM incubated for 24 hrs by propidium iodide staining based flow cytometry analysis (reference value: 2 % ); assay type: functional
[10] = Pro-apoptotic activity in human IGROV1-R10 cells assessed as accumulation at sub G1 phase at 10 uM incubated for 24 hrs in presence of ABT-737 by propidium iodide staining based flow cytometry analysis (reference value: 10.8% ); assay type: functional
[11] = Pro-apoptotic activity in human IGROV1-R10 cells assessed as accumulation at sub G1 phase at 15 uM incubated for 24 hrs in presence of ABT-737 by propidium iodide staining based flow cytometry analysis (reference value: 10.8% ); assay type: functional
SK-OV-3 [12] = test: Pro-apoptotic activity in human SKOV3 cells assessed as increase in caspase3/7 positive cells at 25 uM measured after 24 hrs in presence of ABT-737 by DAPI staining based fluorescence microscopy analysis; assay type: functional, cell-based
A2780 [13] = test: Pro-apoptotic activity in human A2780 cells assessed as increase in caspase3/7 positive cells at 25 uM measured after 24 hrs in presence of ABT-737 by DAPI staining based fluorescence microscopy analysis; assay type: functional, cell-based
IGROV1-R10 [14] = test: Induction of apoptosis in human IGROV1-R10 cells assessed as up regulation of NOXA by Western blot analysis; assay type: functional, cell-based
[15] = target: Induced myeloid leukemia cell differentiation protein Mcl-1 (Homo sapiens) (UniProt Q07820); test: Inhibition of FAM-Bim peptide binding to MCL-1 in human MCF-7 cells assessed as disruption by BRET assay; assay type: cell-based; conditions: MCF7
[16] = Cytotoxicity against human IGROV1-R10 cells transfected with siMCL1 at 15 uM after 24 hrs by fluorescence microscopic analysis; assay type: cell-based; conditions: igrov1-r10, 24 h
[17] = Pro-apoptotic activity in human IGROV1-R10 cells transfected with control siRNA assessed as accumulation at sub G1 phase at 25 uM incubated for 24 hrs by propidium iodide staining based flow cytometry analysis (reference value: 4.5% ); assay type: functional
IGROV1-R10 [18] = test: Pro-apoptotic activity in human IGROV1-R10 cells assessed as cleaved PARP expression at 15 uM measured after 24 hrs in presence of ABT-737 by Western blot analysis; assay type: functional, cell-based
IGROV1-R10 [19] = test: Pro-apoptotic activity in human IGROV1-R10 cells assessed as cleaved caspase-3 expression at 15 uM measured after 24 hrs in presence of ABT-737 by Western blot analysis; assay type: functional, cell-based
[20] = Pro-apoptotic activity in human IGROV1-R10 cells transfected with Bcl-xL siRNA assessed as accumulation at sub G1 phase at 15 uM incubated for 4 hrs by propidium iodide staining based flow cytometry analysis relative to control; assay type: functional
[21] = Pro-apoptotic activity in human IGROV1-R10 cells transfected with Bcl-xL siRNA assessed as accumulation at sub G1 phase at 15 uM incubated for 6 hrs by propidium iodide staining based flow cytometry analysis relative to control; assay type: functional
[22] = Pro-apoptotic activity in human IGROV1-R10 cells transfected with Bcl-xL siRNA assessed as accumulation at sub G1 phase at 15 uM incubated for 8 hrs by propidium iodide staining based flow cytometry analysis relative to control; assay type: functional
[23] = Pro-apoptotic activity in human IGROV1-R10 cells transfected with Bcl-xL siRNA assessed as accumulation at sub G1 phase at 15 uM incubated for 12 hrs by propidium iodide staining based flow cytometry analysis relative to control; assay type: functional
[24] = Pro-apoptotic activity in human IGROV1-R10 cells transfected with Bcl-xL siRNA assessed as accumulation at sub G1 phase at 15 uM incubated for 24 hrs by propidium iodide staining based flow cytometry analysis relative to control; assay type: functional
IGROV1-R10 [25] = test: Pro-apoptotic activity in human IGROV1-R10 cells transfected with Bcl-xL siRNA assessed as cleaved PARP expression at 15 uM incubated for 8 hrs by Western blot analysis; assay type: functional, cell-based
IGROV1-R10 [26] = test: Pro-apoptotic activity in human IGROV1-R10 cells transfected with Bcl-xL siRNA assessed as cleaved caspase-3 expression at 15 uM incubated for 8 hrs by Western blot analysis; assay type: functional, cell-based
SK-OV-3 [27] = test: Pro-apoptotic activity in human SKOV3 cells assessed as increase in caspase3/7 positive cells at 15 uM measured after 24 hrs in presence of ABT-737 by DAPI staining based fluorescence microscopy analysis; assay type: functional, cell-based
A2780 [28] = test: Pro-apoptotic activity in human A2780 cells assessed as increase in caspase3/7 positive cells at 15 uM measured after 24 hrs in presence of ABT-737 by DAPI staining based fluorescence microscopy analysis; assay type: functional, cell-based
A549 [29] = test: Pro-apoptotic activity in human A549 cells assessed as accumulation subG1 phase at 15 uM after 24 hrs by flow cytometry (reference value: 2.5%); assay type: functional
A549 [30] = test: Pro-apoptotic activity in human A549 cells assessed as accumulation subG1 phase at 15 uM after 24 hrs in presence of ABT-737 by flow cytometry (reference value: 3.83%); assay type: functional
[31] = Cytotoxicity against human AG1521 cells assessed as accumulation subG1 phase at 15 uM after 24 hrs by flow cytometry (reference value: 1.7%); assay type: cell-based; conditions: ag1521, 24 h
[32] = Cytotoxicity against human AG1521 cells assessed as accumulation subG1 phase at 15 uM after 24 hrs in presence of ABT-737 by flow cytometry (reference value: 1.64%); assay type: cell-based; conditions: ag1521, 24 h
[33] = Pro-apoptotic activity in human IGROV1-R10 cells transfected with Bax siRNA assessed as accumulation at sub G1 phase at 15 uM incubated for 24 hrs by propidium iodide staining based flow cytometry analysis (reference value: 3.2% ); assay type: functional
[34] = Pro-apoptotic activity in human IGROV1-R10 cells transfected with Bak siRNA assessed as accumulation at sub G1 phase at 15 uM incubated for 24 hrs by propidium iodide staining based flow cytometry analysis (reference value: 3.4%); assay type: functional
[35] = Pro-apoptotic activity in human IGROV1-R10 cells transfected with Bak and Bax siRNA assessed as accumulation at sub G1 phase at 15 uM incubated for 24 hrs by propidium iodide staining based flow cytometry analysis (reference value: 4.3%); assay type: functional
[36] = Pro-apoptotic activity in human IGROV1-R10 cells transfected with Bax siRNA assessed as accumulation at sub G1 phase at 15 uM incubated for 24 hrs in presence of ABT-737 by propidium iodide staining based flow cytometry analysis (reference value: 3.2% ); assay type: functional
[37] = Pro-apoptotic activity in human IGROV1-R10 cells transfected with Bak siRNA assessed as accumulation at sub G1 phase at 15 uM incubated for 24 hrs in presence of ABT-737 by propidium iodide staining based flow cytometry analysis (reference value: 3.4% ); assay type: functional
[38] = Pro-apoptotic activity in human IGROV1-R10 cells transfected with Bak and Bax siRNA assessed as accumulation at sub G1 phase at 15 uM incubated for 24 hrs in presence of ABT-737 by propidium iodide staining based flow cytometry analysis (reference value: 4.3% ); assay type: functional
IGROV1-R10 [39] = test: Pro-apoptotic activity in human IGROV1-R10 cells transfected with Bak siRNA assessed as condensed nuclei at 15 uM incubated for 24 hrs in presence of ABT-737 by DAPI staining based fluorescence microscopic analysis; assay type: functional, cell-based
IGROV1-R10 [40] = test: Pro-apoptotic activity in human IGROV1-R10 cells transfected with Bak siRNA assessed as cleaved PARP level at 15 uM incubated for 24 hrs in presence of ABT-737 by Western blot analysis; assay type: functional, cell-based
IGROV1-R10 [41] = test: Pro-apoptotic activity in human IGROV1-R10 cells transfected with Bak siRNA assessed as cleaved caspase-3 level at 15 uM incubated for 24 hrs in presence of ABT-737 by Western blot analysis; assay type: functional, cell-based

Sequence of Induced myeloid leukemia cell differentiation protein Mcl-1 (Homo sapiens) (Q07820 whole entry): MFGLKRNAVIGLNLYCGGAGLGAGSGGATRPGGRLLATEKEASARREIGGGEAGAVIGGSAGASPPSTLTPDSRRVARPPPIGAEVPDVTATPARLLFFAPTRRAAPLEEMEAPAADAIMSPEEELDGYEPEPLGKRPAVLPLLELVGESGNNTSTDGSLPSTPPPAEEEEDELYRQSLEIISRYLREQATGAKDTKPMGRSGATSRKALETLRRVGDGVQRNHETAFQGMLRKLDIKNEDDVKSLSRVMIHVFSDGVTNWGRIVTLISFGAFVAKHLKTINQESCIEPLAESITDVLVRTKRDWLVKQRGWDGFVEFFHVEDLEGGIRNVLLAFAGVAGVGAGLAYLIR

## Cc1cc(-c2ncc(-c3cccnc3)cc2/C=C/c2ccccc2)cnc1-c1cccnc1
IGROV1-R10 [1]
  Activity: Active
IGROV1-R10 [2]
  Activity: Active
[3]
  Activity: 62.76%
[4]
  Activity: 63.4%
IGROV1-R10 [5]
  Activity: inactive
[6]
  Activity: 6.46%
[7]
  Activity: 70.99%
[8]
  Activity: 2.5%
[9]
  Activity: 4.9%
[10]
  Activity: 22.5%
[11]
  Activity: 36.1%
SK-OV-3 [12]
  Activity: Active
A2780 [13]
  Activity: Active

## Cc1cc(-c2ncc(-c3cccnc3)cc2/C=C/c2ccccc2)cnc1-c1cccc(C/C(N)=N/O)c1
IGROV1-R10 [14]
  Activity: Active
[15]
  inhibition: Active
[16]
  Activity: Non-Toxic
IGROV1-R10 [1]
  Activity: Active
IGROV1-R10 [2]
  Activity: Active
[3]
  Activity: 59%
[4]
  Activity: 91.3%
IGROV1-R10 [5]
  Activity: Active
[17]
  Activity: 47.8%
[6]
  Activity: 40.69%
[7]
  Activity: 55.75%
[8]
  Activity: 2.2%
[9]
  Activity: 2.8%
[10]
  Activity: 34.3%
[11]
  Activity: 57.43%
IGROV1-R10 [18]
  Activity: Active
IGROV1-R10 [19]
  Activity: Active
[20]
  Activity: 14.1%
[21]
  Activity: 19.3%
[22]
  Activity: 35.2%
[23]
  Activity: 52.2%
[24]
  Activity: 64.8%
IGROV1-R10 [25]
  Activity: Active
IGROV1-R10 [26]
  Activity: Active
SK-OV-3 [27]
  Activity: Active
A2780 [28]
  Activity: Active
A549 [29]
  Activity: 12.93%
A549 [30]
  Activity: 68.86%
[31]
  Activity: 1.98%
[32]
  Activity: 3.33%
[33]
  Activity: 7%
[34]
  Activity: 6.8%
[35]
  Activity: 6%
[36]
  Activity: 56.7%
[37]
  Activity: 41%
[38]
  Activity: 27.9%
IGROV1-R10 [39]
  Activity: inactive
IGROV1-R10 [40]
  Activity: inactive
IGROV1-R10 [41]
  Activity: inactive

## Cc1cc(-c2ncc(-c3cccnc3)cc2/C=C/c2ccccc2)cnc1-c1cccc(O)c1
IGROV1-R10 [1]
  Activity: Active
IGROV1-R10 [2]
  Activity: Active
[3]
  Activity: 52.2%
[4]
  Activity: 35.9%
IGROV1-R10 [5]
  Activity: inactive
[17]
  Activity: 12.5%

## Cc1cc(-c2ncc(-c3cccc(O)c3)cc2/C=C/c2ccccc2)cnc1-c1cccnc1
IGROV1-R10 [1]
  Activity: Active
IGROV1-R10 [2]
  Activity: Active
[3]
  Activity: 37.5%
[4]
  Activity: 19.9%
IGROV1-R10 [5]
  Activity: inactive
[17]
  Activity: 5.5%

## Cc1cc(-c2ncc(-c3cccc(C/C(N)=N/O)c3)cc2/C=C/c2ccccc2)cnc1-c1cccnc1
IGROV1-R10 [1]
  Activity: Active
IGROV1-R10 [2]
  Activity: Active
[3]
  Activity: 45.3%
[4]
  Activity: 28%
IGROV1-R10 [5]
  Activity: inactive
[17]
  Activity: 4.8%

## Cc1cc(-c2ncc(-c3cccc(CC(=O)O)c3)cc2/C=C/c2ccccc2)cnc1-c1cccnc1
IGROV1-R10 [1]
  Activity: Active
IGROV1-R10 [2]
  Activity: Active
[3]
  Activity: 46.8%
[4]
  Activity: 31.7%
IGROV1-R10 [5]
  Activity: inactive
[17]
  Activity: 4.6%

## Cc1cc(-c2ncc(-c3cccc(CC#N)c3)cc2/C=C/c2ccccc2)cnc1-c1cccnc1
IGROV1-R10 [1]
  Activity: Active
IGROV1-R10 [2]
  Activity: Active
[3]
  Activity: 36.9%
[4]
  Activity: 25.3%
IGROV1-R10 [5]
  Activity: inactive
[17]
  Activity: 53%

## Cc1cc(-c2ncc(-c3cccnc3)cc2/C=C/c2ccccc2)cnc1-c1cccc(CC#N)c1
IGROV1-R10 [1]
  Activity: Active
IGROV1-R10 [2]
  Activity: Active
[3]
  Activity: 43%
[4]
  Activity: 35.1%
IGROV1-R10 [5]
  Activity: inactive
[17]
  Activity: 6.5%

## Cc1cc(-c2ncc(-c3cccnc3)cc2/C=C/c2ccccc2)cnc1-c1cccc(CC(=O)O)c1
[15]
  inhibition: inactive
IGROV1-R10 [1]
  Activity: Active
IGROV1-R10 [2]
  Activity: inactive
[3]
  Activity: 14.5%
[4]
  Activity: 7.8%
IGROV1-R10 [5]
  Activity: inactive
[17]
  Activity: 6%

Source: ChEMBL document CHEMBL4715827, “Structure-guided design of pyridoclax derivatives based on Noxa / Mcl-1 interaction mode” (Eur J Med Chem, 2018)
